Data published in patent publication US7316814B2, “Cosmetic composition comprising a silicone-containing compound and a fatty acid ester” (L'Oreal, priority 1995, dated 2008).

Assay: Maximum mass content of ester added to a gum-in-silicone-oil solution without precipitation of the gum
Type: physicochemical
Conditions: 25° C.; 13% gum solution in polydimethylsiloxane (Q2-1403)
Description: The maximum mass content of ester which may be added, at 25° C., to a solution of gum in a silicone oil without observing precipitation of the gum was measured.

| Compound | Maximum mass content of ester which may be added without observing precipitation of the gum |
| --- | --- |
| CC(C)CCCCCCCCCCCCCCCOC(=O)C(C)(C)C [Isostearyl neopentanoate] | 68% |
| Octyldodecyl neopentanoate | to at least 1000% |
| CC(C)CCCCCCCCCCCCCCCOC(=O)CCCCCC(C)C [Isostearyl isononanoate] | 60% |
| CCCCCCCCC(CCCCCC)COC(=O)CCCCCC(C)C (stereo not shown) [2-hexyldecyl isononanoate] | 72% |
